Measurements: ChEMBL document CHEMBL5375954, “Discovery and Evaluation of C6-Substituted Pyrazolopyrimidine-Based Bisphosphonate Inhibitors of the Human Geranylgeranyl Pyrophosphate Synthase and Evaluation of Their Antitumor Efficacy in Multiple Myeloma, Pancreatic Ductal Adenocarcinoma, and Colorectal Cancer” (J Med Chem, 2023)
Calls of active or inactive are those of the source. The calls are words filed in the database; no cut-off is given here.

How the values were obtained:
[1] = Hepatotoxicity in male NSG mouse xenografted with human RPMI-8226 cells assessed as vasculitis or perivasculitis at 3 mg/kg, ip administered 3 times a week for 26 days and measured 48 hrs post last dose by H and E staining based assay; format: toxicity, organism-based; conditions: in vivo, 672 h, time 28 day
[2] = test system: MIA PaCa-2; assay: Induction of apoptosis in human MIA PaCa-2 cells assessed as live cells at 1 uM incubated for 72 hrs by APC-Annexin-V/7-AAD staining based flow cytometry (reference value: 97.7%); format: functional
[3] = Hepatotoxicity in female NSG mouse xenografted with human RPMI-8226 cells assessed as eosinophilic degeneration at 3 mg/kg, ip administered 3 times a week for 26 days and measured 48 hrs post last dose by H and E staining based assay; format: toxicity, organism-based; conditions: in vivo, 672 h, time 28 day
[4] = Volume of distribution in Sprague-Dawley rat at 3 mg/kg, iv measured for 24 hrs by LC-MS/MS analysis; format: ADME, organism-based; conditions: in vivo
[5] = Plasma clearance in Sprague-Dawley rat at 3 mg/kg, iv measured for 24 hrs by LC-MS/MS analysis; format: ADME, organism-based
[6] = Hepatotoxicity in female NSG mouse xenografted with human RPMI-8226 cells assessed as foci of bile ductular/oval cell proliferation at 3 mg/kg, ip administered 3 times a week for 26 days and measured 48 hrs post last dose by H and E staining based assay; format: toxicity, organism-based, Bile duct; conditions: in vivo, 672 h, time 28 day
[7] = Metabolic stability in Sprague-Dawley rat liver microsomes assessed as compound remaining incubated for 45 mins in presence of NADPH by LC-MS/MS analysis; format: ADME, Microsome; conditions: 0.75 h
[8] = Hepatotoxicity in female NSG mouse xenografted with human RPMI-8226 cells assessed as vasculitis or perivasculitis at 3 mg/kg, ip administered 3 times a week for 26 days and measured 48 hrs post last dose by H and E staining based assay; format: toxicity, organism-based; conditions: in vivo, 672 h, time 28 day
[9] = test system: MIA PaCa-2; assay: Induction of apoptosis in human MIA PaCa-2 cells assessed as early apoptotic cells at 1 uM incubated for 72 hrs by APC-Annexin-V/7-AAD staining based flow cytometry (reference value: 1.26%); format: functional
[10] = Toxicity in NSG mouse xenografted with human MIA PaCa-2 cells assessed as weight loss at 3 mg/kg, ip administered 3 times a week for 26 days and measured daily; format: organism-based; conditions: in vivo, time 26 day
[11] = biological target: Cytochrome P450 2D6 (Homo sapiens, UniProt P10635); assay: Inhibition of CYP2D6 (unknown origin); format: ADME
[12] = Hepatotoxicity in male NSG mouse xenografted with human RPMI-8226 cells assessed as foci of bile ductular/oval cell proliferation at 3 mg/kg, ip administered 3 times a week for 26 days and measured 48 hrs post last dose by H and E staining based assay; format: toxicity, organism-based, Bile duct; conditions: in vivo, 672 h, time 28 day
[13] = test system: HCT-116; assay: Induction of apoptosis in human HCT-116 cells assessed as necrotic cells at 1 uM incubated for 72 hrs by APC-Annexin-V/7-AAD staining based flow cytometry (reference value: 2.99%); format: functional
[14] = Metabolic stability in Beagle dog liver microsomes assessed as compound remaining incubated for 45 mins in presence of NADPH by LC-MS/MS analysis; format: ADME, Canis lupus familiaris, Microsome; conditions: 0.75 h
[15] = Cytotoxicity against human IMR-90 cells assessed as inhibition of cell growth at 10 uM incubated for 72 hrs by MTS assay relative to control; format: toxicity, cell-based
[16] = Metabolic stability in CD-1 mouse liver microsomes assessed as compound remaining incubated for 45 mins in presence of NADPH by LC-MS/MS analysis; format: ADME, Microsome; conditions: 0.75 h
[17] = species on record: Mus musculus; assay: Cytotoxicity against KPC mouse pancreatic cancer organoid ccmT4 at 1 uM incubated for 72 hrs by CellTiter-Glo luminescence based analysis; format: functional, tissue-based
[18] = biological target: T1, Ras-related protein Rap-1A (Homo sapiens) (UniProt P62834); assay: Inhibition of RAP-1A prenylation in human MIA PaCa-2 cells incubated for 48 hrs by Western blot analysis; format: cell-based; conditions: dose 10-1000 nM
T1 sequence (whole entry): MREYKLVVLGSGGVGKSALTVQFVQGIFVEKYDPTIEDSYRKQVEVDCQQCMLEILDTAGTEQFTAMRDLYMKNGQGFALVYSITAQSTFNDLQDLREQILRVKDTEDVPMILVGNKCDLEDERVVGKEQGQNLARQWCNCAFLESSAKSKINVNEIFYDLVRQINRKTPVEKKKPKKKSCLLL

[19] = Cytotoxicity against Normal human bronchial epithelial cells assessed as inhibition of cell growth at 10 uM incubated for 72 hrs by MTS assay relative to control; format: toxicity, cell-based
[20] = Hepatotoxicity in male NSG mouse xenografted with human RPMI-8226 cells assessed as single-cell necrosis at 3 mg/kg, ip administered 3 times a week for 26 days and measured 48 hrs post last dose by H and E staining based assay; format: toxicity, organism-based; conditions: in vivo, 672 h, time 28 day

Cytochrome P450 2D6, sequence (P10635 whole entry): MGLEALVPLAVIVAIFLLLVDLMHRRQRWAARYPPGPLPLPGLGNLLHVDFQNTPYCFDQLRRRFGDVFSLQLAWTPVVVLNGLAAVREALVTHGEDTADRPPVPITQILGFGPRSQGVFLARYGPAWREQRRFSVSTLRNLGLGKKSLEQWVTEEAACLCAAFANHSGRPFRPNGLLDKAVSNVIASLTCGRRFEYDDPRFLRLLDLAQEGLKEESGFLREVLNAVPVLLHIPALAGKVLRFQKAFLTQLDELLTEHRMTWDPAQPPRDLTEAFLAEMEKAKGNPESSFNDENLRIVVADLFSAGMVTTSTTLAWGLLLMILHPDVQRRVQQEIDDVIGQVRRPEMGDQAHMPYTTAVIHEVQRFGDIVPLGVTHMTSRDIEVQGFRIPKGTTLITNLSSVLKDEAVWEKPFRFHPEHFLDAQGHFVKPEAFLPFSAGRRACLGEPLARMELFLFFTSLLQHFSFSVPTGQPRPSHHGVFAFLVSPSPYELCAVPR

Cn1ncc2c(NC(P(=O)(O)O)P(=O)(O)O)nc(-c3cccc(C(=O)Nc4ccc(C(F)(F)F)cc4)c3)nc21
Activity [1]: Non-Toxic
Activity [2]: 32.1%
Activity [3]: Non-Toxic
Vd [4]: 0.055 L/kg
clearance [5]: 0.2 mL/min/kg
Activity [6]: Non-Toxic
Stability [7]: 89.7%
Activity [8]: Non-Toxic
Activity [9]: 13.5%
Activity [10]: Non-Toxic
IC50 [11]: > 40 µM
Activity [12]: Non-Toxic
Activity [13]: 4.6%
Stability [14]: 87.7%
inhibition at 72 h, 10 µM [15]: ~20%
Stability [16]: 103%
Activity [17]: Active
inhibition [18]: Dose-Dependent Effect
inhibition at 72 h, 10 µM [19]: 0%
Activity [20]: Non-Toxic
